Test results from patent publication US8846110B2, “Polymeric systems for the delivery of anticancer drugs” (Rexahn Pharmaceuticals, Inc., priority 2009, dated 2014).

Experiments:
[1] = system: MDA-MB-231 (breast); assay: In vitro cell proliferation (SRB) assay, MDA-MB-231; type: cell-based; conditions: Homo sapiens, drug equivalent, 96 hours incubation, SRB method
Method: (§1) Cancer cell lines to determine the effect of polymer-drug conjugates were obtained from the following sources: Human MDA-MB-231 (breast), HCT116 (colon) and PANC-1 (pancreas), from the American Type Culture Collection (ATCC) (Manassas, Va.). UMRC2 (kidney) from United States National Cancer Institute (Bethesda, Md.). Cells were maintained in Dulbecco's modified Eagle's medium (“DMEM”, Invitrogen) supplemented with 10% FBS, P/S and 10 mM HEPES. All cells were incubated at 37° C. under humidified 5% CO2.
(§2) The growth inhibition assay of polymer-drug conjugates against human cancer cell lines was performed using the Sulforhodamine B (“SRB”) method (Skehan et al., J. National Cancer Institute, 82: 1107-1112 (1990)). […] After 5 minutes agitation in 10 mM Tris solution, the absorbance of each well was measured at 530 nm using Benchmark Plus Microplate reader (Bio-Rad Laboratories, Hercules, Calif.). The absorbance value provides a direct measure of the number of live cells post-treatment with copolymer-drug conjugates.
(§3) To translate the OD530 values into the number of live cells in each well, the OD530 values were compared to those on standard OD530—versus—cell number curves generated for each cell line. The percent survival was calculated using the formula: % Survival=live cell number [test]/live cell number [control]×100
(§4) The IC50 values were calculated by non-linear regression analysis.

[2] = system: HCT116 (colon); assay: In vitro cell proliferation (SRB) assay, HCT116; type: cell-based; conditions: Homo sapiens, HCT-116; drug equivalent; 96 hours incubation; SRB method
Method: as §1, §2, §3, §4

[3] = system: Caki-1; assay: In vitro cell proliferation (SRB) assay, Caki-1; type: cell-based; conditions: Homo sapiens, drug equivalent, 96 hours incubation, SRB method
[4] = molecular target: T1, reduced folate carrier (Homo sapiens, UniProt P41440); conditions: low affinity reduced folate carrier, cellular uptake; cited from earlier work
T1 sequence (P41440 1-591): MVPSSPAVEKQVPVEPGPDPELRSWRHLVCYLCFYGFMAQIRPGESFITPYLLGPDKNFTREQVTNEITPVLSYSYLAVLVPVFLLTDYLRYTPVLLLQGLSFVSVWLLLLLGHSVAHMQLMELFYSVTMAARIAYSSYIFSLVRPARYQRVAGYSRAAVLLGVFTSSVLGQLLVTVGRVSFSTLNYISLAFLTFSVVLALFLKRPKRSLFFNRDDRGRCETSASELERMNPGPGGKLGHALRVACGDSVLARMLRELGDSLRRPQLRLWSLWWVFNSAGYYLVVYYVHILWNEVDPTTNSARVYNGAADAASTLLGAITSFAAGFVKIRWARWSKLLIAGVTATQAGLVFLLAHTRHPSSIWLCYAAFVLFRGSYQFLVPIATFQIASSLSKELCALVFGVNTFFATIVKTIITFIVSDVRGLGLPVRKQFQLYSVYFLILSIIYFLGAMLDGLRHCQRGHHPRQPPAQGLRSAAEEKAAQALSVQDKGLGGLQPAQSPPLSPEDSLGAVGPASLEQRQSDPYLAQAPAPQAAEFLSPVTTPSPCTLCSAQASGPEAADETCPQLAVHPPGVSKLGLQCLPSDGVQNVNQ

[5] = molecular target: glycosylphosphatidylinositol-linked folate receptor (FR); conditions: high affinity folate receptor; cited from earlier work
[6] = molecular target: mucin-1 (Homo sapiens, UniProt P15941); conditions: specific ligand of mucin-1; cited from earlier work
Chain of mucin-1 (P15941 24-1255): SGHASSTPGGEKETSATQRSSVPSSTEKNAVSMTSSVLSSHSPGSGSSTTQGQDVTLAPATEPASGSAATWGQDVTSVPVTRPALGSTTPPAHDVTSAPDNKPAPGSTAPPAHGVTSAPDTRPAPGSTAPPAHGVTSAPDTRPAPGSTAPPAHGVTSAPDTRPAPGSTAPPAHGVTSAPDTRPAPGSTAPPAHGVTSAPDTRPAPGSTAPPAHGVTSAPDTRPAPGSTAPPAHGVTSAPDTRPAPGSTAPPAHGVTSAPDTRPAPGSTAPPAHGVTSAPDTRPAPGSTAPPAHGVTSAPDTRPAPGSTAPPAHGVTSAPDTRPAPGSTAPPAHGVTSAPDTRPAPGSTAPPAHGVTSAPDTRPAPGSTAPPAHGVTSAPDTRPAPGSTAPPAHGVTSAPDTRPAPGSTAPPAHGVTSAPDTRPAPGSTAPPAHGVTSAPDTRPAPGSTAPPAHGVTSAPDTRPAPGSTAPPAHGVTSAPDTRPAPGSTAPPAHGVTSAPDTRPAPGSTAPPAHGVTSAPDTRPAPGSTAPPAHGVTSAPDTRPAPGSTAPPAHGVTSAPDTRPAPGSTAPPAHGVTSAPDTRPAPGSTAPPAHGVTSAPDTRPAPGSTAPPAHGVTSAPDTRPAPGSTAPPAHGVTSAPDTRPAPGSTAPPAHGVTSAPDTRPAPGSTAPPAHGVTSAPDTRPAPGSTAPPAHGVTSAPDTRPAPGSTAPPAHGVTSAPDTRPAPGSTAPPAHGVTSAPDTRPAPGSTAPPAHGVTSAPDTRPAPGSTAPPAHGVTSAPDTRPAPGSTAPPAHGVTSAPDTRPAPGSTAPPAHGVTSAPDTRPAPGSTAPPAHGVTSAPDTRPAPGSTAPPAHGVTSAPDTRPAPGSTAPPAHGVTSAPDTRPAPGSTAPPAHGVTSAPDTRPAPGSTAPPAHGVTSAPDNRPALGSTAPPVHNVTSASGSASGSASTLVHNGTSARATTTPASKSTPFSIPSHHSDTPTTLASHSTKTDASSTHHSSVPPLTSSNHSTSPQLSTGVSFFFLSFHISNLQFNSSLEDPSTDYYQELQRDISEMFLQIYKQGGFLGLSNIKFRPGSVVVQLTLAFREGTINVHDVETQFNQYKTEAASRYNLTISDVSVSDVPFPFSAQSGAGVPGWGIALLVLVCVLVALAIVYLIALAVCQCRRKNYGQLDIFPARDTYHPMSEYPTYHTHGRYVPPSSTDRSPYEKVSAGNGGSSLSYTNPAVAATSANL

CC(=O)O[C@@]12CO[C@@H]1C[C@H](O)[C@@]1(C)C(=O)[C@H](O)C3=C(C)[C@@H](OC(=O)[C@H](O)[C@@H](NC(=O)OC(C)(C)C)c4ccccc4)C[C@@](O)([C@@H](OC(=O)c4ccccc4)[C@H]21)C3(C)C [Docetaxel, docetaxel]
IC50 [1]: 0.0015 µM
IC50 [2]: 0.00058 µM
IC50 [3]: 0.001 µM

Nc1nc2ncc(CNc3ccc(C(=O)N[C@@H](CCC(=O)O)C(=O)O)cc3)nc2c(=O)[nH]1 [folates, Folic acid]
Km [4]: ~1 µM
Kd [5]: ~0.1 nM

YCAREPPTRTFAYWG [EPPT1]
Kd [6]: 20000 nM
